Results as given in ChEMBL document CHEMBL4425146, “Synthesis and biological evaluation of N(9)-substituted harmine derivatives as potential anticancer agents” (Bioorg Med Chem Lett, 2016).
pIC50: −log10 of the molar value.

What was measured:
MCF7 [1] = assay: Cytotoxicity against human MCF7 cells assessed as inhibition of cell growth after 48 hrs by MTT assay; assay type: functional, cell-based; settings: MCF7, 48 h
SMMC-7721 = assay: Cytotoxicity against human SMMC7721 cells assessed as inhibition of cell growth after 48 hrs by MTT assay; assay type: functional, cell-based; settings: SMMC-7721, 48 h
A549 [2] = assay: Cytotoxicity against human A549 cells assessed as inhibition of cell growth after 48 hrs by MTT assay; assay type: functional, cell-based; settings: A549, 48 h
SGC-7901 = assay: Cytotoxicity against human SGC7901 cells assessed as inhibition of cell growth after 48 hrs by MTT assay; assay type: functional, cell-based; settings: SGC-7901, 48 h
P338 = assay: Cytotoxicity against mouse […] cells assessed as inhibition of cell growth after 3 days by MTT assay; assay type: functional, cell-based; settings: 72 h
HL-60 [3] = assay: Cytotoxicity against human HL60 cells assessed as inhibition of cell growth after 3 days by MTT assay; assay type: functional, cell-based; settings: HL-60, 72 h
COLO 205 = assay: Cytotoxicity against human COLO205 cells assessed as inhibition of cell growth after 48 hrs by MTT assay; assay type: functional, cell-based; settings: COLO 205, 48 h
HL-60 [4] = assay: Cytotoxicity against human HL60 cells assessed as inhibition of cell growth after 48 hrs by MTT assay; assay type: functional, cell-based; settings: HL-60, 48 h
MCF7 [5] = assay: Cytotoxicity against human MCF7 cells assessed as inhibition of cell growth; assay type: functional, cell-based
HeLa = assay: Cytotoxicity against human HeLa cells assessed as inhibition of cell growth by MTT assay; assay type: functional, cell-based
A549 [6] = assay: Cell cycle arrest in human A549 cells assessed as accumulation at sub-G1 phase at 0.1 uM after 48 hrs by propidium iodide staining based flow cytometry (reference value: 2.78 %); assay type: functional
A549 [7] = assay: Cell cycle arrest in human A549 cells assessed as accumulation at G0/G1 phase at 0.1 uM after 48 hrs by propidium iodide staining based flow cytometry (reference value: 53.54 %); assay type: functional
A549 [8] = assay: Cell cycle arrest in human A549 cells assessed as accumulation at S phase at 0.1 uM after 48 hrs by propidium iodide staining based flow cytometry (reference value: 30.85 %); assay type: functional
A549 [9] = assay: Cell cycle arrest in human A549 cells assessed as accumulation at G2/M phase at 0.1 uM after 48 hrs by propidium iodide staining based flow cytometry (reference value: 14.62%); assay type: functional
A549 [10] = assay: Cell cycle arrest in human A549 cells assessed as accumulation at sub-G1 phase at 0.5 uM after 48 hrs by propidium iodide staining based flow cytometry (reference value: 2.78 %); assay type: functional
A549 [11] = assay: Cell cycle arrest in human A549 cells assessed as accumulation at G0/G1 phase at 0.5 uM after 48 hrs by propidium iodide staining based flow cytometry (reference value: 53.54 %); assay type: functional
A549 [12] = assay: Cell cycle arrest in human A549 cells assessed as accumulation at S phase at 0.5 uM after 48 hrs by propidium iodide staining based flow cytometry (reference value: 30.85 %); assay type: functional
A549 [13] = assay: Cell cycle arrest in human A549 cells assessed as accumulation at G2/M phase at 0.5 uM after 48 hrs by propidium iodide staining based flow cytometry (reference value: 14.62%); assay type: functional
A549 [14] = assay: Cell cycle arrest in human A549 cells assessed as accumulation at sub-G1 phase at 1 uM after 48 hrs by propidium iodide staining based flow cytometry (reference value: 2.78 %); assay type: functional
A549 [15] = assay: Cell cycle arrest in human A549 cells assessed as accumulation at G0/G1 phase at 1 uM after 48 hrs by propidium iodide staining based flow cytometry (reference value: 53.54 %); assay type: functional
A549 [16] = assay: Cell cycle arrest in human A549 cells assessed as accumulation at S phase at 1 uM after 48 hrs by propidium iodide staining based flow cytometry (reference value: 30.85 %); assay type: functional
A549 [17] = assay: Cell cycle arrest in human A549 cells assessed as accumulation at G2/M phase at 1 uM after 48 hrs by propidium iodide staining based flow cytometry (reference value: 14.62%); assay type: functional
A549 [18] = assay: Cell cycle arrest in human A549 cells assessed as accumulation at G2/M phase after 48 hrs by propidium iodide staining based flow cytometry; assay type: functional
A549 [19] = assay: Cell cycle arrest in human A549 cells assessed as accumulation at sub-G1 phase after 48 hrs by propidium iodide staining based flow cytometry; assay type: functional
A549 [20] = assay: Induction of apoptosis in human A549 cells assessed as viable cells at 0.1 uM after 48 hrs by Annexin V-FITC/propidium iodide staining based flow cytometry (reference value: 96.08 %); assay type: functional; settings: A549, 48 h, read-out: Activity
A549 [21] = assay: Induction of apoptosis in human A549 cells assessed as early apoptotic cells at 0.1 uM after 48 hrs by Annexin V-FITC/propidium iodide staining based flow cytometry (reference value: 0.57 %); assay type: functional
A549 [22] = assay: Induction of apoptosis in human A549 cells assessed as late apoptotic cells at 0.1 uM after 48 hrs by Annexin V-FITC/propidium iodide staining based flow cytometry (reference value: 2.70 %); assay type: functional
A549 [23] = assay: Induction of apoptosis in human A549 cells assessed as viable cells at 0.5 uM after 48 hrs by Annexin V-FITC/propidium iodide staining based flow cytometry (reference value: 96.08 %); assay type: functional; settings: A549, 48 h, read-out: Activity
A549 [24] = assay: Induction of apoptosis in human A549 cells assessed as early apoptotic cells at 0.5 uM after 48 hrs by Annexin V-FITC/propidium iodide staining based flow cytometry (reference value: 0.57 %); assay type: functional
A549 [25] = assay: Induction of apoptosis in human A549 cells assessed as late apoptotic cells at 0.5 uM after 48 hrs by Annexin V-FITC/propidium iodide staining based flow cytometry (reference value: 2.70 %); assay type: functional
A549 [26] = assay: Induction of apoptosis in human A549 cells assessed as viable cells at 1 uM after 48 hrs by Annexin V-FITC/propidium iodide staining based flow cytometry (reference value: 96.08 %); assay type: functional; settings: A549, 48 h, read-out: Activity
A549 [27] = assay: Induction of apoptosis in human A549 cells assessed as early apoptotic cells at 1 uM after 48 hrs by Annexin V-FITC/propidium iodide staining based flow cytometry (reference value: 0.57 %); assay type: functional
A549 [28] = assay: Induction of apoptosis in human A549 cells assessed as late apoptotic cells at 1 uM after 48 hrs by Annexin V-FITC/propidium iodide staining based flow cytometry (reference value: 2.70 %); assay type: functional
A549 [29] = assay: Induction of apoptosis in human A549 cells after 48 hrs by Annexin V-FITC/propidium iodide staining based flow cytometry; assay type: functional, cell-based

COc1cccc2c1C(=O)c1c(O)c3c(c(O)c1C2=O)C[C@@](O)(C(=O)CO)C[C@@H]3O[C@H]1C[C@H](N)[C@H](O)[C@H](C)O1 [DOXORUBICIN]
pIC50 (MCF7 [1]): 6.08 | pIC50 (SMMC-7721): 5.86 | pIC50 (A549 [2]): 6.12

COc1ccc2c3ccnc(C)c3n(CCCCCCBr)c2c1
pIC50 (MCF7 [1]): 6.35 | pIC50 (SGC-7901): 5.16 | pIC50 (SMMC-7721): 5.42 | pIC50 (A549 [2]): 6.06

COc1ccc2c3ccnc(C)c3n(C(=O)c3ccc(C)cc3)c2c1
pIC50 (MCF7 [1]): < 4.30 | pIC50 (SGC-7901): 5.54 | pIC50 (SMMC-7721): < 4.30 | pIC50 (A549 [2]): 5.88

CCCCCCCCCCCC(=O)n1c2cc(OC)ccc2c2ccnc(C)c21
pIC50 (MCF7 [1]): < 4.30 | pIC50 (SGC-7901): 5.06 | pIC50 (SMMC-7721): 4.31 | pIC50 (A549 [2]): 4.84

COc1ccc(S(=O)(=O)Nc2cccnc2Nc2ccc(O)cc2)cc1 [ABT-751]
pIC50 (P338): 6.80 | pIC50 (HL-60 [3]): 6.70

CCCCn1c2cc(OC)ccc2c2ccnc(C)c21
pIC50 (MCF7 [1]): < 4.30 | pIC50 (SGC-7901): 4.95 | pIC50 (SMMC-7721): 4.54 | pIC50 (A549 [2]): 5.22

COc1ccc2c3ccnc(C)c3n(S(=O)(=O)c3ccccc3)c2c1
pIC50 (MCF7 [1]): < 4.30 | pIC50 (SGC-7901): 5.23 | pIC50 (SMMC-7721): < 4.30 | pIC50 (A549 [2]): 6.08

COc1cc(Cn2c3ccc(C(C)=O)cc3c3ccnc(C)c32)cc(OC)c1OC
pIC50 (COLO 205): 6.28 | pIC50 (HL-60 [4]): 7.52

OCc1ccc2c(c1)c1ccccc1n2Cc1ccc(Cl)nc1
pIC50 (MCF7 [5]): 4.52 to 4.70

CCCCCCCCn1c2cc(OC)ccc2c2ccnc(C)c21
pIC50 (MCF7 [1]): < 4.30 | pIC50 (SGC-7901): 5.18 | pIC50 (SMMC-7721): 5.16 | pIC50 (A549 [2]): 5.32

COc1ccc2c(c1)[nH]c1c(C)nccc12 [HARMINE]
pIC50 (MCF7 [1]): 4.17 | pIC50 (SGC-7901): 4.39 | pIC50 (SMMC-7721): 4.23 | pIC50 (A549 [2]): 4.37

COc1ccc2c3ccnc(C)c3n(CCCc3ccccc3)c2c1
pIC50 (HeLa): 4.62

COc1ccc2c3ccnc(C)c3n(CCCCBr)c2c1
pIC50 (MCF7 [1]): 6.07 | pIC50 (SGC-7901): 4.97 | pIC50 (SMMC-7721): 5.08 | pIC50 (A549 [2]): 4.91

COc1ccc2c3ccnc(C)c3n(S(=O)(=O)c3ccc(C)cc3)c2c1
pIC50 (MCF7 [1]): < 4.30 | pIC50 (SGC-7901): 5.81 | pIC50 (SMMC-7721): < 4.30 | pIC50 (A549 [2]): 6.32 | Activity (A549 [6]): 8.63% | Activity (A549 [7]): 53.31% | Activity (A549 [8]): 30.27% | Activity (A549 [9]): 16.42% | Activity (A549 [10]): 21.15% | Activity (A549 [11]): 36.99% | Activity (A549 [12]): 31.93% | Activity (A549 [13]): 31.09% | Activity (A549 [14]): 24.88% | Activity (A549 [15]): 36.46% | Activity (A549 [16]): 25.9% | Activity (A549 [17]): 36.64% | Activity (A549 [18]): Dose-dependent effect | Activity (A549 [19]): Dose-dependent effect | viability at 0.1 µM (A549 [20]): 73.1% | Activity (A549 [21]): 2.68% | Activity (A549 [22]): 18.76% | viability at 0.5 µM (A549 [23]): 45% | Activity (A549 [24]): 11.5% | Activity (A549 [25]): 42.79% | viability at 1 µM (A549 [26]): 28.2% | Activity (A549 [27]): 17.59% | Activity (A549 [28]): 54.11% | Activity (A549 [29]): Dose-dependent effect
